For six molecules, IC50 results are on record in ChEMBL document CHEMBL6134914, “Novel Bicyclic Heterocycles as MRGPRX2 Antagonists for Treating Inflammatory Diseases” (ACS Med Chem Lett, 2025).

As a reminder, the IC50 is the point on the concentration scale where inhibition reaches its midpoint.

This assay deals with T1, Mas-related G-protein coupled receptor member X2 (Homo sapiens, UniProt Q96LB1).
T1 sequence (Q96LB1 whole entry): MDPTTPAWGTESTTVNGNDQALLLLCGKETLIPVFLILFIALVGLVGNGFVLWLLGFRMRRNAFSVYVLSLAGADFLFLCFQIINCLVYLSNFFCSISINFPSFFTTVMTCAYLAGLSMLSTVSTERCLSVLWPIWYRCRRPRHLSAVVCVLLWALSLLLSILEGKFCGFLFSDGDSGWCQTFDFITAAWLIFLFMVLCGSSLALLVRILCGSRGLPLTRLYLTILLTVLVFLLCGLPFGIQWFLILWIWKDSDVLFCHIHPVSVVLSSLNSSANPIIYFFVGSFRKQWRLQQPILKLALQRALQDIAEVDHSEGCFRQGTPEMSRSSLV
As to the kind of experiment: Inhibition of human MRGPRX2 expressed in CHO-K1 cells assessed as Ca2+ release incubated for 30 mins by FLIPR calcium mobilization assay. Type of assay: functional, cell-based.
`NS(=O)(=O)N1CC(CNc2cc(C(F)(F)F)nc3ccc(Br)cc23)(c2ccc(F)cc2)C1`: the IC50 was determined as 0.1 nM.
To `NS(=O)(=O)N1CCC(CNc2cc(C(F)(F)F)nc3ccc(Cl)cc23)(c2ccc(F)cn2)CC1` belongs 0.1 nM; to `Cc1csc(C2(CNc3cc(C(F)(F)F)nc4ccc(Cl)cc34)CN(S(N)(=O)=O)C2)n1`, 0.1 nM; to `NC(=O)N1CCC(CNc2cc(C(F)(F)F)nc3ccc(Cl)cc23)(c2ccc(F)cn2)C1` (stereo unspecified), 0.1 nM.
`NS(=O)(=O)N1CC(CNc2cc(C(F)(F)F)nc3ccc(Cl)cc23)(c2ccc3ccccc3n2)C1`: the IC50 is 0.1 nM.
To `N#Cc1cnn(C2(CNc3cc(C(F)(F)F)nc4ccc(Cl)cc34)CN(C(N)=O)C2)c1` belongs 0.1 nM.
